Literature values as cited in patent US7014865B1, “Natural formulation for the treatment and prevention of depression, containing St. John's Wort and derivatives of dihydro- and tetrahydrofolic acid” (Merck Patent GmbH, priority 1998, dated 2006).

What was measured:
Details in all cases: in vitro
uptake of serotonin = tested on: uptake of serotonin
uptake of dopamine = tested on: uptake of dopamine
uptake of noradrenaline = tested on: uptake of noradrenaline
uptake of L-glutamate = tested on: uptake of L-glutamate
uptake of GABA = tested on: uptake of GABA

hyperforin
potent inhibitor: inhibition of uptake of serotonin (uptake of serotonin) | inhibition of uptake of dopamine (uptake of dopamine) | inhibition of uptake of noradrenaline (uptake of noradrenaline) | inhibition of uptake of L-glutamate (uptake of L-glutamate) | inhibition of uptake of GABA (uptake of GABA)
